{"source": "patent US4654370A", "about": "“Glyceryl valproates” (Abbott Laboratories, priority 1980, dated 1987)", "key": {"audiogenic seizures": {"system": "audiogenic seizures", "test": "Protective effects against audiogenic seizures in mice", "format": "in vivo", "details": "oral; 800 mg./kg. valproic acid equivalent; 30 min after dosing; bell for one minute; groups of 10 mice", "experimental": "The valproic acid equivalent of 800 mg./kg. of each compound was administered by oral intubation in a composition prepared as shown in Example 12 to groups of 10 mice. Thirty minutes after dosing, convulsions were produced by electrically activating a bell for one minute."}, "epileptic seizures": {"system": "epileptic seizures", "details": "stated as background; cited from earlier work"}, "gastro-intestinal tract": {"system": "gastro-intestinal tract", "details": "cited from earlier work"}, "[1]": {"test": "Valproic acid blood plasma levels after oral intubation in rats", "format": "in vivo", "details": "rat, equivalent of 200 mg. valproic acid per animal, mean of 3-18 animals", "experimental": "(§1) The compounds of the present invention were administered to mice and rats by oral intubation. A vehicle of 0.5% aqueous methylcellulose containing one drop of a polyethylene sorbitan monooleate was used to suspend the above compounds. In the case of Example 1, the compound was first ground in a tissue-homogenizer followed by mixing in a Waring blender. The results are shown in Table I expressed in mcg. of valproic acid per ml. of blood plasma at specified times."}, "[2]": {"test": "Absorption profiles and area-under-the-curve in beagle dog", "format": "in vivo", "details": "blood, single oral dose 24.9 mg./kg. valproic acid equivalent", "experimental": "Since it is possible that the new compounds are not absorbed as quickly as valproic acid itself, absorption profiles and area-under-the-curve (AUC) values were calculated for valproic acid, glyceride trivalproate and representatives of the current compounds. The phrase AUC values represents the total quantity of the compound which is absorbed by the blood during the time periods referred to in Table III expressed in mcg./ml. A beagle dog received a single oral dose of 24.9 mg./kg. valproic acid equivalent in a composition prepared as shown in Example 12. The blood concentrations are shown in Table III as mcg./ml. while the AUC values are expressed as hr.×mcg./ml."}, "[3]": {"test": "Valproic acid blood plasma levels after oral intubation in mice", "format": "in vivo", "details": "mouse, equivalent of 200 mg. valproic acid per animal, mean of 3-18 animals", "experimental": "as §1"}}}
{"smiles": "CCCC(CCC)C(=O)OCC(O)CO", "note": "(racemic) [Example 6, 1-Valproyl-glycerol]", "values": [{"measurement": "Percentage of Mice Exhibiting Seizures, Any Type", "setting": "audiogenic seizures", "result": 50, "unit": "%"}, {"measurement": "Percentage of Mice Exhibiting Seizures, Tonic Extension", "setting": "audiogenic seizures", "result": 10, "unit": "%"}]}
{"smiles": "CCCC(CCC)C(=O)OC(COC(C)=O)COC(C)=O", "note": "[Example 5, 1,3-Diacetyl-2-valproyl-glyceride]", "values": [{"measurement": "Percentage of Mice Exhibiting Seizures, Any Type", "setting": "audiogenic seizures", "result": 50, "unit": "%"}, {"measurement": "Percentage of Mice Exhibiting Seizures, Tonic Extension", "setting": "audiogenic seizures", "result": 10, "unit": "%"}]}
{"smiles": "CCCC(CCC)C(=O)OCC(COC(=O)C(CCC)CCC)OC(=O)C(CCC)CCC", "note": "[Glycerol trivalproate]", "values": [{"measurement": "Percentage of Mice Exhibiting Seizures, Any Type", "setting": "audiogenic seizures", "result": 100, "unit": "%"}, {"measurement": "Percentage of Mice Exhibiting Seizures, Tonic Extension", "setting": "audiogenic seizures", "result": 80, "unit": "%"}, {"measurement": "therapeutic value", "setting": "epileptic seizures", "result": "substantially no therapeutic value"}, {"measurement": "adverse side effects", "setting": "gastro-intestinal tract; reported by Meijer and Meinardi, 1975", "result": "no adverse side effects"}]}
{"smiles": "CCCC(CCC)C(=O)O", "note": "[Valproic Acid, 2-propylpentanoic acid]", "values": [{"measurement": "Percentage of Mice Exhibiting Seizures, Any Type", "setting": "audiogenic seizures", "result": 50, "unit": "%"}, {"measurement": "Percentage of Mice Exhibiting Seizures, Tonic Extension", "setting": "audiogenic seizures", "result": 10, "unit": "%"}, {"measurement": "gastro-intestinal irritation in patients", "setting": "gastro-intestinal tract; patients using valproic acid", "result": "9-16%"}, {"measurement": "concentration at 0.5 h", "setting": "[1]; 0.5 hrs.", "result": 84100, "unit": "ng/mL"}, {"measurement": "concentration at 1.5 h", "setting": "[1]; 1.5 hrs.", "result": 27500, "unit": "ng/mL"}, {"measurement": "concentration at 0.5 h", "setting": "[2]; 0.5 hrs.", "result": 65600, "unit": "ng/mL"}, {"measurement": "concentration at 1 h", "setting": "[2]; 1 hr.", "result": 40800, "unit": "ng/mL"}, {"measurement": "concentration at 2 h", "setting": "[2]; 2 hrs.", "result": 9000, "unit": "ng/mL"}, {"measurement": "concentration at 4 h", "setting": "[2]; 4 hrs.", "result": 2600, "unit": "ng/mL"}, {"measurement": "concentration at 6 h", "setting": "[2]; 6 hrs.", "result": 1300, "unit": "ng/mL"}, {"measurement": "AUC at 8 h", "setting": "[2]; 8 hrs.", "result": 82200, "unit": "ng·h/mL"}, {"measurement": "concentration at 0.5 h", "setting": "[3]; 0.5 hrs.", "result": 134000, "unit": "ng/mL"}, {"measurement": "concentration at 1.5 h", "setting": "[3]; 1.5 hrs.", "result": 72000, "unit": "ng/mL"}]}
